Columns and labels:
[1] = biological target: T1, human CaSR (Homo sapiens, UniProt P41180); assay: Functional whole cell assay (modulation of human CaSR), IP1 accumulation in CHO-K1 cells; format: cell-based; details: human CaSR stably expressed on CHO-K1 cells, 2 mM Ca2+, IP-One htrf
T1 sequence (P41180 20-1078): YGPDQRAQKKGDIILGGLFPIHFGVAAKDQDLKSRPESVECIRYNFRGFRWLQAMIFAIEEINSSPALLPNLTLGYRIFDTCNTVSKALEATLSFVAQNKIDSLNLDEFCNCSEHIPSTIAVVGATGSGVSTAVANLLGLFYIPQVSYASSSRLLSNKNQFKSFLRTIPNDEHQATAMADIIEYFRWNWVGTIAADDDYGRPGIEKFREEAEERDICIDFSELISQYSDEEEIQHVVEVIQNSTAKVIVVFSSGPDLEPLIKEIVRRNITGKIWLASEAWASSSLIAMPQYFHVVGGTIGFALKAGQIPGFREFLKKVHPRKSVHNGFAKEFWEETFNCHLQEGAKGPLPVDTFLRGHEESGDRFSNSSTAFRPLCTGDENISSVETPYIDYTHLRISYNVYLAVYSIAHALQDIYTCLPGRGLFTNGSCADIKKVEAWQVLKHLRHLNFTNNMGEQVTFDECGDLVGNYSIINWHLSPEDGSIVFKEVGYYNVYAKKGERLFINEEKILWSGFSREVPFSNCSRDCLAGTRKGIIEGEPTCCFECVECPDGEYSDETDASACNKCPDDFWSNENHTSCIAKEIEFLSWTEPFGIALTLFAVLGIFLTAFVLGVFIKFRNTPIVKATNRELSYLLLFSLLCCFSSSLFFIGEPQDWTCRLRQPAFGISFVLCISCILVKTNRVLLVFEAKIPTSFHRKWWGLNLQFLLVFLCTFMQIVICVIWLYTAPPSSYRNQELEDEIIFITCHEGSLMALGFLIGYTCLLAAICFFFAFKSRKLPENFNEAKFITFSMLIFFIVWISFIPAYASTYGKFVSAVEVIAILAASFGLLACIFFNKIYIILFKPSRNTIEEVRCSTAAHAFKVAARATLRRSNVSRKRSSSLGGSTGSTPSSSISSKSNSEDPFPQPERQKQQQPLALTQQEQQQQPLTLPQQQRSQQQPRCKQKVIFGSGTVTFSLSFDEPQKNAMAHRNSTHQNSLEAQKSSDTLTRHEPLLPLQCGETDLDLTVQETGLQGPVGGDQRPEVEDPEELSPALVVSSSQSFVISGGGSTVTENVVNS
Text: The assay investigates a compound's functional ability to act as a biological positive modulator on the human CaSR. Activation of the receptor expressed on CHO-K1 cells is detected through the G alpha q pathway, the activation of phospholipase C and the accumulation of intracellular inositol phosphate (IP) as described earlier [Sandrine Ferry, Bruno Chatel, Robert H. Dodd, Christine Lair, Danielle Gully, Jean-Pierre, Maffrand, and Martial Ruat. Effects of Divalent Cations and of a Calcimimetic on Adrenocorticotropic Hormone Release in Pituitary Tumor Cells. BIOCHEMICAL AND BIOPHYSICAL RESEARCH COMMUNICATIONS 238, 866-873 (1997)]. The human CaSR is stably expressed on a CHO-K1 cell clone, stimulated with a basal level of calcium and challenged with the tested compound. The level of IP1 is determined using the IP-One htrf kit (Cisbio, France). CHO-K1 cells not transfected with the CaSR fail to elicit an IP1 response upon calcium and/or compound stimulation.
The ORF coding for the human CaSR (genebank: NM_000388) was acquired from Invitrogen Corp, USA and subsequently cloned into the mammalian expression vector pCDA3.1.
CHO-K1 cells were transfected using Lipofectamine according to manufacturer's protocol (400.000 cells/well were seeded in a 6-well plate and transfected after 24 hours using 2 μg DNA and 5 μl lipofectamine). After another 24 hours the cells were detached, seeded and subjected to 1 mg/ml of G-418. Following 7 days growth single clones were picked, the CaSR expression evaluated using the 5C10 antibody against CaSR, the clones with the highest expression were selected and tested for functional response. The preferred clone was continuously cultured according to standard procedures described in ATCC (American Type Culture Collection) protocols for CHO-K1 with the addition of 500 μg/ml G-418.
On the assay day cells were harvested and resuspended to 13*10^6 cells/ml in stimulation buffer (containing: Hepes 10 mM, MgCl2 0.5 mM, KCl 4.2 mM, NaCl 146 mM, glucose 5.5 mM, LiCl 50 mM at pH 7.4). Five μl cell solution were pipetted into a well (white 384-well plate, Perkin Elmer Optiplate) followed by 5 μl compound diluted in a Ca^2+-containing (to the final concentration of 2 mM) buffer. After compound stimulation for 1 hour at 37° C. 10 ul of IP-One assay reagents were added and incubated for another 1 hour at room temperature. Finally the plate was read using a Perkin Elmer EnVision, according to protocol supplied by the IP-One assay kit manufacturer. The FRET ratio was calculated by dividing the 665 nm emission signal with that of the 615 nm.

[2] = Clearance in human liver microsomes; format: in vitro ADME; details: 0.5 μM compound, 0.5 mg/mL microsomes, 1 mM NADPH
Procedure: Test compound concentration is 0.5 μM, microsome concentration is 0.5 mg/mL and NADPH concentration is 1 mM in the incubation. The described method is performed by the liquid handling system Tecan RSP and is based on a 96-well format.
Control incubations with test compound without NADPH and test compound without microsomes are conducted to investigate non-CYP mediated metabolism and stability in phosphate buffer at 37° C., respectively.
The human liver microsomal suspension in phosphate buffer is mixed with NADPH. The mixture is pre-heated (7 min) to 37° C. Test compound is added, and the mixture is incubated for 30 minutes. Incubations are run in duplicate. Samples are withdrawn at predetermined stop times and mixed with methanol containing internal standard (IS) to terminate all enzyme activity and precipitate proteins. A control without NADPH (to detect problems such as nonspecific protein binding, heat instability or non-CYP mediated metabolism) and a control without microsomes (for assessing compound stability in the absence of any active enzymes) are tested.
The percentage of organic solvent in the incubations is less than 1%. Careful inspections of reagents are performed prior to the start of any experiment to ensure all reagents are in solution.
The 96-well plates are centrifuged. Test compound depletion, using a compound specific LC/MS/MS method, is determined.
The logarithm of the peak area ratios of test compound to internal standard (IS) versus incubation time is plotted in a graph.
The rate constant (k) (min^−1) of test compound depletion is calculated from the linear part of the curve and the half-time (t1/2) in minutes can be calculated from the rate constant (Eq. 1). t1/2=(ln 2)/k (Eq. 1)
Intrinsic clearance (Clint) (mL/min/mg protein) is calculated from: Clint=k/c (Eq. 2) where c is the microsomal protein concentration in mg/mL.
Conversion to apparent clearance (Clapp) (mL/min/kg) is done by Eq. 3: Clapp=Clint×a×b/d (Eq. 3) where a, b and d are the scaling factors for normalizing Clint to human body weight.
The following human scaling factors are used:
a: 45 (microsomal protein/liver weight (mg/g))
b: 1500 (liver weight (g))
Apparent clearance below approximately 10 mL/min/kg human body weight (corresponding to extraction ratio of approx. 30%) is considered as low clearance (high metabolic stability). Apparent intrinsic clearance above approximately 60 mL/min/kg human body weight (corresponding to extraction ratio of approx. 75%) is considered as high clearance (low metabolic stability).

[3] = Pharmacokinetic profile following intravenous administration in rats; format: in vivo; details: serum, rat, 0.5 mg/kg
Procedure: A rat is dosed intravenously with a solution of test compound (0.5 mg/kg) in DMSO/EtOH/H2O/propylene glycol [0.2:0.8:5:4] and blood samples are taken from the sublingual venous plexus after 2 min, 10 min, 30 min, 1 h, 2 h, 4 h and 6 h.
Blood samples are taken in BD Vacutainer SST serum separation tubes, serum is isolated by centrifugation, transferred to micronics tubes and analyzed. Samples are kept at −18° C. pending analysis.
Mass spectrometer (API5000 series) parameters are optimised to analyse for the specific compounds and test injections are performed to confirm the validity of the established generic chromatography method. The generic method is based on fast gradient (2.5 min) analysis on C18 column with mobile phases consisting methanol, ammonium acetate, formic acid and water.
Standards are prepared in rat serum to cover the analytical range 0.1 to 300 ng/ml. Standards, blank serum and study samples are applied to 96 deepwell plate and proteins are precipitated by addition of acetonitrile containing internal standard. Samples are analysed on LC-MS/MS usually over night.
As standard, the 2 and 10 min samples are diluted 10 times with rat serum prior to analysis. Other samples may need similar dilution to keep quantification below 300 ng/ml.
Quantification is performed based on the ratio between analyte and internal standard. The curve should preferably fit a linear curve using a 1/x weighting factor. At least a factor of two is needed to distinguish between blank serum and lowest standard. If this is not the case the quantification of the specific experiment may be raised.
Calculation of T½ requires at least three datapoints describing a true elimination phase. If such three points are not available AUC (0-inf) can not be estimated. In these cases […](0-6 h) is calculated instead.
Total clearance of drug from serum (Cl_iv) is calculated from: Cl—iv=Dose/AUC
Terminal volume of distribution (Vd) is defined as the volume in which the amount of drug would need to be uniformly distributed to produce the observed serum concentration and is calculated from: Vd=T½×Cl—iv/(ln 2)

SMILES | EC50 [1] [nM] | Clearance (Clapp) in human liver microsomes [2] | Vd [3] [L/kg]
COc1cc([C@@H](C)NC2CC[C@H](c3ccc(S(C)(=O)=O)cc3)C2)ccc1F (stereo partly drawn) [Compound 1014, (1R)—(N)-[(1R/S,3S)-3-(4-methanesulfonylphenyl)cyclopentyl]-1-(4-fluoro-3-methoxyphenyl)ethanamine] | < 500 | A (A: <20 mL/min/kg) | 
COc1cc([C@@H](C)N[C@H]2CC[C@@H](c3ccc(S(=O)(=O)NCCO)cc3)C2)ccc1F [Compound 1187, 4-[(1R,3S)-3-[[(1R)-1-(4-fluoro-3-methoxy-phenyl)ethyl]amino]-cyclopentyl]-N-(2-hydroxyethyl)benzenesulfonamide] | < 500 | A (A: <20 mL/min/kg) | > 50
COc1cc([C@@H](C)NC2CC[C@H](c3ccc(C(=O)NC4CCNCC4)cc3)C2)ccc1F (mixture of isomers) [Compound 1157, (1R)—(N)-[(3S)-3-[4-[piperidin-4-ylaminocarbonyl]phenyl]-cyclopentyl]-1-(4-fluoro-3-methoxyphenyl)ethanamine] | < 500 | A (A: <20 mL/min/kg) | 10 to 50
COc1cc([C@@H](C)N[C@H]2CC[C@@H](c3ccc(C(=O)NCCO)cc3)C2)ccc1F [Compound 1176, 4-{(1R,3S)-3-[(1R)-1-(4-Fluoro-3-methoxy-phenyl)-ethylamino]-cyclopentyl}-N-(2-hydroxy-ethyl)-benzamide] | < 500 | A (A: <20 mL/min/kg) | 

Other lines, results leading:

EC50 [1] [nM] | Clearance (Clapp) in human liver microsomes [2] | Vd [3] [L/kg] | SMILES
< 500 | A (A: <20 mL/min/kg) | 10 to 50 | COc1cc([C@@H](C)N[C@H]2CC[C@@H](c3ccc(C(=O)N4CCNC(=O)C4)cc3)C2)ccc1F [Compound 1179, 4-(4-{(1R,3S)-3-[(1R)-1-(4-Fluoro-3-methoxy-phenyl)-ethylamino]-cyclopentyl}-benzoyl)-piperazin-2-one]
< 500 | A (A: <20 mL/min/kg) | < 10 | COc1cc([C@@H](C)N[C@H]2CC[C@@H](c3ccc(-c4nnn[nH]4)cc3)C2)ccc1F [Compound 1182, (1S,3R)—N-[(1R)-1-(4-fluoro-3-methoxy-phenyl)ethyl]-3-[4-(1H-tetrazol-5-yl)phenyl]cyclopentanamine]
< 500 | A (A: <20 mL/min/kg) |  | COc1cc([C@@H](C)NC2CCC(c3ccc(CNS(C)(=O)=O)cc3)C2)ccc1F (mixture of isomers) [Compound 1181, N-[[4-[(1R/S,3R/S)-3-[[(1R)-1-(4-fluoro-3-methoxy-phenyl)ethyl]amino]cyclopentyl]-phenyl]methyl]methanesulfonamide]
< 500 | A (A: <20 mL/min/kg) | > 50 | COc1cc([C@@H](C)N[C@H]2CC[C@@H](c3ccc(C(=O)NCCNS(C)(=O)=O)cc3)C2)ccc1F.Cl [Compound 1178, 4-{(1R,3S)-3-[(1R)-1-(4-Fluoro-3-methoxy-phenyl)-ethylamino]-cyclopentyl}-N-(2-methanesulfonylamino-ethyl)-benzamide hydrochloride]

Reference: patent US8765676B2, “Calcium sensing receptor modulating compounds and pharmaceutical use thereof” (Leo Pharma A/S, priority 2009, dated 2014)
